Data reported in patent US20260167656A1, “PHOSPHORAMIDATE COMPOUNDS AND USES THEREOF” (ALLORION THERAPEUTICS INC, priority 2022, published 2026).

Tests used:
[1] = system: non-small cell lung cancer cell line H460; test: In vitro human cancer cell line cytotoxicity (proliferation) assay in H460, CellTiter-Glo, 72 hours; assay type: cell-based; details: DMSO condition (no AKR1C3 inhibitor), read-out: CTG H460: Avg IC50 (nM) [Assay Condition: DMSO]
Procedure: Biological Example 1. In Vitro Human Cancer Cell Line Cytotoxicity Assay
IC50 values in nanomolar reported here were derived from in vitro proliferation assay data in non-small cell lung cancer cell line H460.
(§1) Specifically, exponentially growing cells were seeded at density of 3×10^3 cells per well in 96-well plate and incubated at 37° C. in 5% CO2, 95% air and 100% relative humidity for 24 hours before adding compounds. Compounds were solubilized in 100% DMSO at 10 mM. Compounds were added to the plate using Tecan D300e® digital Dispenser. After drug addition, the plates were incubated for an additional 72 hours at 37° C. in 5% CO2, 95% air and 100% relative humidity. At the end of the incubation, cell viability was quantified with CellTiter-Glo® assay.

[2] = system: non-small cell lung cancer cell line H460; test: H460 proliferation assay in the presence of 3 uM ASP9521 (AKR1C3 specific inhibitor); assay type: cell-based, human; details: H460 cells, CellTiter-Glo, 72 hours, in the presence of 3 uM ASP9521 added 4 hours prior to compounds; read-out: CTG H460: Avg IC50 (nM) [Assay Condition: ASP9521]
Procedure: as §1
To further confirm that compounds were activated by human AKR1C3, H460 proliferation assay were also performed in the presence of 3 uM […], an AKR1C3 specific inhibitor. ASP9521 were added to the plates 4 hours prior to the addition of compounds.

[3] = Homo sapiens, NCI-H460, 72 h, H460 cells
[4] = Homo sapiens, NCI-H460, H460 cells

| SMILES | IC50 [1, 3] [nM] | IC50 [2] [nM] | IC50 ([1]; H460 cells) [nM] | IC50 [1, 4] [nM] |
| --- | --- | --- | --- | --- |
| CN(C)C(=O)c1cccc(Oc2c([N+](=O)[O-])ccc3c2OCCC3OP(=O)(N2CC2)N2CC2)c1 (stereo not shown) [Example 128] | < 10 | 491 | – | – |
| CS(=O)(=O)c1cc(Oc2c([N+](=O)[O-])ccc3c2CCC3OP(=O)(N2CC2)N2CC2)ccc1F (stereo not shown) [Example 508] | – | 519 | < 10 | – |
| COc1ccnc(OCc2cc(C(C)OP(=O)(N3CC3)N3CC3)ccc2[N+](=O)[O-])c1 (single isomer, unassigned) [Example 3] | ≥ 100 | > 3410 | – | – |
| O=[N+]([O-])c1ccc2c(c1Oc1ccccc1)OCCC2OP(=O)(N1CC1)N1CC1 (stereo not shown) [Example 127, 7-nitro-8-phenoxy-3,4-dihydro-2H-1-benzopyran-4-yl bis(aziridin-1-yl)phosphinate] | 10 to 50 | 291 | – | – |
| C[C@H]1CN1P(=O)(OC(c1ccc([N+](=O)[O-])c(Oc2cccc(C(=O)N(C)C)c2)c1)C(F)(F)F)N1C[C@@H]1C (single isomer, unassigned) [Example 225] | 50 to 100 | 9530 | – | – |
| N#Cc1ccc(-c2ccc(Oc3c([N+](=O)[O-])ccc4c3CCC4OP(=O)(N3CC3)N3CC3)cc2)nc1 (stereo not shown) [Example 288] | – | 1940 | < 10 | – |
| O=[N+]([O-])c1ccc2c(c1Oc1cccc(OCC3CC3)c1)CCC2OP(=O)(N1CC1)N1CC1 (stereo not shown) [Example 480] | – | 1760 | < 10 | – |
| Cc1nc(-c2cccc(Oc3c([N+](=O)[O-])ccc4c3CCC4OP(=O)(N3CC3)N3CC3)c2)no1 (stereo not shown) [Example 88] | – | 3570 | 50 to 100 | – |
| O=C(NC1CC1)c1ccc(Oc2c([N+](=O)[O-])ccc3c2CC[C@H]3OP(=O)(N2CC2)N2CC2)cc1 [Example 263] | – | 943 | < 10 | – |
| O=C(NC1CCC1)c1ccc(Oc2c([N+](=O)[O-])ccc3c2CCC3OP(=O)(N2CC2)N2CC2)cc1 (stereo not shown) [Example 53] | – | 945 | < 10 | – |
| CC1(C)CN(c2ccc(Oc3c([N+](=O)[O-])ccc4c3CCC4OP(=O)(N3CC3)N3CC3)cc2)C(=O)O1 (stereo not shown) [Example 426] | – | 638 | < 10 | – |
| Cc1nsc(-c2cc(Oc3c([N+](=O)[O-])ccc4c3CC[C@@H]4OP(=O)(N3CC3)N3CC3)ccc2F)n1 [Example 359] | – | 1470 | – | < 10 |
| Cn1cc(Oc2c([N+](=O)[O-])ccc3c2CCC3OP(=O)(N2CC2)N2CC2)ccc1=O (stereo not shown) [Example 509] | – | 844 | < 10 | – |
| CC(OP(=O)(N1CC1C)N1CC1C)c1ccc([N+](=O)[O-])c(Oc2cccc(C(=O)N(C)C)c2)c1 (stereo not shown) [Example 205] | < 10 | 184 | – | – |
| O=[N+]([O-])c1cc2c(cc1Oc1ccc(-c3ccccc3)nc1)[C@@H](OP(=O)(N1CC1)N1CC1)CC2 [Example 527] | – | 1090 | < 10 | – |
| O=[N+]([O-])c1ccc2c(c1Oc1ccc(S(=O)(=O)C3CC3)cc1)CC[C@@H]2OP(=O)(N1CC1)N1CC1 [Example 512] | < 10 | 83.3 | – | – |
| Cc1nsc(-c2cccc(Oc3c([N+](=O)[O-])ccc4c3CC[C@@H]4OP(=O)(N3CC3)N3CC3)c2)n1 [Example 292, (S)-4-(3-(3-methyl-1,2,4-thiadiazol-5-yl)phenoxy)-5-nitro-2,3-dihydro-1H-inden-1-yl di(aziridin-1-yl)phosphinate] | – | 1810 | – | < 10 |
| C[C@H](OP(=O)(N1CC1)N1CC1)c1cc2cc(Oc3cccc(OC(F)(F)F)c3)c([N+](=O)[O-])cc2o1 (single isomer, unassigned) [Example 532] | < 10 | 1230 | – | – |
| O=[N+]([O-])c1cc2c(cc1Oc1ccc(-c3ccccc3)nc1)C(OP(=O)(N1CC1)N1CC1)CC2 (stereo not shown) [Example 193] | – | 880 | < 10 | – |
| Cc1cnc(-c2cccc(Oc3c([N+](=O)[O-])ccc4c3CC[C@@H]4OP(=O)(N3CC3)N3CC3)c2)o1 [Example 295, (S)-4-(3-(5-methyloxazol-2-yl)phenoxy)-5-nitro-2,3-dihydro-1H-inden-1-yl di(aziridin-1-yl)phosphinate] | 10 to 50 | 3620 | – | – |
| O=[N+]([O-])c1ccc2c(c1Oc1cccc(-c3ccccn3)c1)CC[C@@H]2OP(=O)(N1CC1)N1CC1 [Example 297] | < 10 | 1300 | – | – |
| CSc1ccc(Oc2c([N+](=O)[O-])ccc3c2CCC3OP(=O)(N2CC2)N2CC2)cc1 (stereo not shown) [Example 505] | – | 327 | < 10 | – |
| O=C1CCCN1c1cc(Oc2c([N+](=O)[O-])ccc3c2CCC3OP(=O)(N2CC2)N2CC2)ccc1F (stereo not shown) [Example 427] | – | 756 | < 10 | – |
